Consider three molecules from patent publication US12194158B2, “Oromucosal nanofiber carriers for therapeutic treatment” (Instar Technologies A.S., priority 2016, dated 2025).

Molecules are shown by their SMILES. Where a name gives a salt, the structure may show the parent alone.

The conditions of series [1]: acidic stomach pH; cited from earlier work.
Series [2] in a line: In vitro transmucosal permeation of liraglutide through porcine sublingual mucosa (Franz diffusion cell). The note with it: from nanofibre carrier. The series is classed as in vitro ADME. On the procedure:
The liraglutide containing nanofibre carrier samples or the reference solution samples were applied onto fresh porcine sublingual mucosa of thickness ca 0.4 mm fixed in a Franz diffusion cell. An exposed mucosal area for permeation was 1.0 cm^2, and the stirred acceptor phase was phosphate buffer pH 7.4 tempered at 37°±0.5° C. Both the tested solutions (Victoza pre-filled pen for subcutaneous injection, 6 mg/mL and the liraglutide solution in buffer pH 6.80, 0.4 mg/mL) were applied onto the sublingual membrane in 400 μL volume. Donor nanofibre samples contained 0.5 mg of liraglutide in the form of a multilayered nanofibre disc and were suffused in donor space with 400 μL of buffer pH 6.80 or 8.15, respectively.
Determination of liraglutide was performed on an Agilent 1200 instrument. The parameters were as follows: Column Poroshell 120 EC-C18 (4.6×150 mm, particle size: 5.0 μm) was thermostated at 35° C. Samples were kept at 10° C., injection 5.00 μL. Mobile Phase A: Na2HPO4 (pH 7.75):ACN (85:15) was mixed with Mobile Phase B: ACN in gradient and pumped at speed 1.200 mL/min. Detector wavelength: 215 nm. Resulting liraglutide retention time was ca 3.4 min.

The conditions of series [3]: after oral administration; cited from earlier work.

Regarding `CCCCCCOC(=O)NC(=N)c1ccc(NCc2nc3cc(C(=O)N(CCC(=O)OCC)c4ccccn4)ccc3n2C)cc1` [DG, Dabigatran ethexylate mesylate], the solubility result in series [1] was “very good”.

For `CCCCCCCCCCCCCCCC(=O)N[C@@H](CCC(=O)NCCCC[C@H](NC(=O)[C@H](C)NC(=O)[C@H](C)NC(=O)[C@H](CCC(N)=O)NC(=O)CNC(=O)[C@H](CCC(=O)O)NC(=O)[C@H](CC(C)C)NC(=O)[C@H](Cc1ccc(O)cc1)NC(=O)[C@H](CO)NC(=O)[C@H](CO)NC(=O)[C@@H](NC(=O)[C@H](CC(=O)O)NC(=O)[C@H](CO)NC(=O)[C@@H](NC(=O)[C@H](Cc1ccccc1)NC(=O)[C@@H](NC(=O)CNC(=O)[C@H](CCC(=O)O)NC(=O)[C@H](C)NC(=O)[C@@H](N)Cc1cnc[nH]1)[C@@H](C)O)[C@@H](C)O)C(C)C)C(=O)N[C@@H](CCC(=O)O)C(=O)N[C@@H](Cc1ccccc1)C(=O)N[C@H](C(=O)N[C@@H](C)C(=O)N[C@@H](Cc1c[nH]c2ccccc12)C(=O)N[C@@H](CC(C)C)C(=O)N[C@H](C(=O)N[C@@H](CCCNC(=N)N)C(=O)NCC(=O)N[C@@H](CCCNC(=N)N)C(=O)NCC(=O)O)C(C)C)[C@@H](C)CC)C(=O)O` [Liraglutide], the “duration of further sublingual permeation in vitro” value in series [2] is recorded as “about 1 hour”. Moreover, the “transmucosal permeation through the sublingual membrane” value in series [2] (FIG. 5) was “able to permeate transmucosally”.

Regarding `CNS(=O)(=O)Cc1ccc2[nH]cc(CCN(C)C)c2c1` [sumatriptan], the oral bioavailability in series [3] is 15%.
